Where a name gives a salt, the structure may show the parent alone.
Tests used:
[1] = test system: LPS-stimulated PBMC TNFα release; assay: LPS-stimulated PBMC TNFα release assay; assay type: cell-based; details: human PBMCs, LPS 10 ng/ml, 18 h, TNFα by ELISA, at least three separate experiments, read-out: p38α inhibition (IC50 values), inhibition of TNFα release
Method: LPS-Stimulated PBMC TNFα Release Assay.
Peripheral Blood Mononuclear Cells (PBMCs) were isolated from healthy human volunteer blood using a standard density gradient centrifugation technique. Citrated blood was placed onto Histopaque™ and centrifuged. The PBMCs were removed from the density gradient interface and washed in phosphate buffered saline (PBS). The PBMCs were suspended in RPMI 1640 medium (without serum), dispensed into a 96-well plate and incubated at 37° C. for 3 h in a humidified incubator. After incubation, the medium was replaced (with medium containing 1% foetal bovine serum), and the plate incubated at 37° C., for 1 h, in the presence of test compound or the appropriate vehicle. LPS (10 ng/ml), or an appropriate vehicle control, was then added to the cells, and the plate returned to the incubator for 18 h. Cell-free supernatants were removed and assayed for TNFα levels using an ELISA kit from R&D Systems.
A dose response curve to each test compound was performed and the effect of compound in each experiment was expressed as a percentage inhibition of the control TNFα release. Dose response curves were plotted and compound potency (IC50) was determined. Compounds were tested in at least three separate experiments.

p38alpha = target: T1, p38alpha (Homo sapiens, UniProt Q16539); assay: P38alpha enzyme inhibition assay (Alphascreen kinase activity assay); assay type: biochemical; details: 100 pM p38alpha, 250 μM ATP, 2 hours pre-incubation at 25° C., ATF-2 fusion protein substrate; read-out: p38α inhibition (IC50 values)
T1 construct: purchased Invitrogen PV3304
T1 sequence (Q16539 whole entry, the tested form may be a part): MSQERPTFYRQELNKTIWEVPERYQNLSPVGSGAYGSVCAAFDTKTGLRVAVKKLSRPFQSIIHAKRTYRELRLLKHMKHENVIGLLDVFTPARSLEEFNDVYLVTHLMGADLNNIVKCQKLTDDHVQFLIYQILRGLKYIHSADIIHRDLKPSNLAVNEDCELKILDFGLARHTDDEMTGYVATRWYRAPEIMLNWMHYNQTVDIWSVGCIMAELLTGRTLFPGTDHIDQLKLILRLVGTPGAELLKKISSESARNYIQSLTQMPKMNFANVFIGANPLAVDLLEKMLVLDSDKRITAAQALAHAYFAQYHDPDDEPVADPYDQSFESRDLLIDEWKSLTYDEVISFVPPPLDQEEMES
Method: P38alpha Enzyme Inhibition Assay.
The inhibitory activity of compounds was determined using an Alphascreen® (Perkin Elmer) based kinase activity assay. Kinase reactions consisted of 25 mM HEPES pH 7.5, 10 mM MgCl2, 100 μM Na3VO4, 2 mM DTT, 0.05 mg/ml Tween 20, 100 pM p38alpha (Invitrogen, PV3304), 1% DMSO and 0.3 μg/ml ATF-2 fusion protein (New England Biolabs, 9224). Compounds were incubated under these conditions for 2 hours, at 25° C., prior to the initiation of the kinase activity by the addition of the 250 μM ATP. Reaction volumes were 20 uL. After 1 hr at 25° C. reactions were stopped by the adding 10 uL of 25 mM HEPES pH 7.5 containing 62.5 mM EDTA, 0.05% Triton X-100, 10% BSA and 0.83 ng/uL anti-phospho-ATF2 antibody (Abeam, ab28812). Detection was performed by measuring luminescence following the addition of Alphascreen Donor beads (Perkin Elmer 6765300) and Protein A Alphascreen Acceptor beads (Perkin Elmer 6760137), both at a final concentration of 20 ug/ml. IC50 values were determined from concentration-response curves.

Row | Compound | IC50 (p38alpha) [nM] | IC50 [1] [nM]
1 | CC(C)c1nnc2ccc(O[C@H]3CC[C@H](NC(=O)Nc4nc(C(C)(C)C)no4)c4ccccc43)cn12 [Example 8, 1-(3-tert-Butyl-[1,2,4]oxadiazol-5-yl)-3-[(1S,4S)-4-(3-isopropyl-[1,2,4]triazolo[4,3-a]pyridin-6-yloxy)-1,2,3,4-tetrahydro-naphthalen-1-yl]-urea] | < 10 | < 10
2 | CC(C)c1nnc2ccc(O[C@@H]3CC[C@H](NC(=O)Nc4cc(C(C)(C)C)nn4-c4cccc(CN5CCC(F)(F)CC5)c4)c4ccccc43)cn12 [Example 12, 1-{5-tert-Butyl-2-[3-(4,4-difluoro-piperidin-1-ylmethyl)-phenyl]-2H-pyrazol-3-yl}-3-[(1S,4R)-4-(3-isopropyl-[1,2,4]triazolo[4,3-a]pyridin-6-yloxy)-1,2,3,4-tetrahydro-naphthalen-1-yl]-urea] | < 10 | 10 to 100
3 | CC(C)c1nnc2ccc(O[C@@H]3CC[C@H](NC(=O)Nc4cc(C(C)(C)C)nn4-c4cccc(SCCO)c4)c4ccccc43)cn12 [Example 3, 1-{5-tert-Butyl-2-[3-(2-hydroxyethylsulfanyl)-phenyl]-2H-pyrazol-3-yl}-3-[(1S,4R)-4-(3-isopropyl-[1,2,4]triazolo[4,3-a]pyridin-6-yloxy)-1,2,3,4-tetrahydro-naphthalen-1-yl]-urea] | < 10 | < 10
4 | CC(C)c1nnc2ccc(O[C@@H]3CC[C@H](NC(=O)Nc4cc(C(C)(C)C)nn4C)c4ccccc43)cn12 [Example 2, 1-(5-tert-Butyl-2-methyl-2H-pyrazol-3-yl)-3-[(1S,4R)-4-(3-isopropyl-[1,2,4]triazolo[4,3-a]pyridin-6-yloxy)-1,2,3,4-tetrahydro-naphthalen-1-yl]-urea] | < 10 | < 10
5 | COc1ccc(-n2nc(C(C)(C)C)cc2NC(=O)N[C@H]2CC[C@@H](Oc3ccc4nnc(C(C)C)n4c3)c3ccccc32)cc1 [Example 1, 1-(5-tert-Butyl-2-(4-methoxy-phenyl)-2H-pyrazol-3-yl)-3-[(1S,4R)-4-(3-isopropyl-[1,2,4]triazolo[4,3-a]pyridin-6-yloxy)-1,2,3,4-tetrahydro-naphthalen-1-yl]-urea] | < 10 | < 10
6 | CC(C)c1nnc2ccc(O[C@@H]3CC[C@H](NC(=O)Nc4cc(C(C)(C)C)nn4-c4cccc(N5CCOCC5)c4)c4ccccc43)cn12 [Example 23, 1-[5-tert-Butyl-2-(3-morpholin-4-yl-phenyl)-2H-pyrazol-3-yl]-3-[(1S,4R)-4-(3-isopropyl-[1,2,4]triazolo[4,3-a]pyridin-6-yloxy)-1,2,3,4-tetrahydro-naphthalen-1-yl]-urea] | < 10 | < 10
7 | CC(C)c1nnc2ccc(O[C@@H]3CC[C@H](NC(=O)Nc4cc(C(C)(C)C)nn4C)c4cc(F)ccc43)cn12 [Example 19, 1-(5-tert-Butyl-2-methyl-2H-pyrazol-3-yl)-3-[(1S,4R)-7-fluoro-4-(3-isopropyl-[1,2,4]triazolo[4,3-a]pyridin-6-yloxy)-1,2,3,4-tetrahydro-naphthalen-1-yl]-urea] | < 10 | 10 to 100
8 | CC(C)c1nnc2ccc(O[C@H]3CC[C@H](NC(=O)Nc4ccc(Cl)c(C(F)(F)F)c4)c4ccccc43)cn12 [Example 7, 1-(4-Chloro-3-trifluoromethyl-phenyl)-3-[(1S,4S)-4-(3-isopropyl-[1,2,4]triazolo[4,3-a]pyridin-6-yloxy)-1,2,3,4-tetrahydro-naphthalen-1-yl]-urea] | < 10 | < 10

Continued, in another order:

Row | IC50 (p38alpha) [nM] | Compound | IC50 [1] [nM]
9 | < 10 | CN(C)CCn1nc(C(C)(C)C)cc1NC(=O)N[C@H]1CC[C@@H](Oc2ccc3nnc(-c4c(Cl)cccc4Cl)n3c2)c2ccccc21 [Example 28, 1-[5-tert-Butyl-2-(2-dimethylamino-ethyl)-2H-pyrazol-3-yl]-3-{(1S,4R)-4-[3-(2,6-dichloro-phenyl)-[1,2,4]triazolo[4,3-a]pyridin-6-yloxy]-1,2,3,4-tetrahydro-naphthalen-1-yl}-urea formate salt] | < 10
10 | < 10 | CC(C)(C)c1cc(NC(=O)N[C@H]2CC[C@@H](Oc3ccc4nnc(-c5c(Cl)cccc5Cl)n4c3)c3ccccc32)n(CCN2CCCCC2)n1 [Example 29, 1-[5-tert-Butyl-2-(2-piperidin-1-yl-ethyl)-2H-pyrazol-3-yl]-3-{(1S,4R)-4-[3-(2,6-dichloro-phenyl)-[1,2,4]triazolo[4,3-a]pyridin-6-yloxy]-1,2,3,4-tetrahydro-naphthalen-1-yl}-urea formate salt] | < 10
11 | < 10 | Cn1nc(C(C)(C)C)cc1NC(=O)N[C@H]1CC[C@@H](Oc2ccc3nnc(-c4c(Cl)cccc4Cl)n3c2)c2ccccc21 [Example 33, 1-(5-tert-Butyl-2-methyl-2H-pyrazol-3-yl)-3-{(1S,4R)-4-[3-(2,6-dichlorophenyl)-[1,2,4]triazolo[4,3-a]pyridin-6-yloxy]-1,2,3,4-tetrahydronaphthalen-1-yl]-urea] | < 10
12 | < 10 | CC(C)(C)c1cc(NC(=O)N[C@H]2CC[C@@H](Oc3ccc4nnc(-c5c(Cl)cccc5Cl)n4c3)c3ccccc32)n(CCN2CCOCC2)n1 [Example 27, 1-[5-tert-Butyl-2-(2-morpholin-4-yl-ethyl)-2H-pyrazol-3-yl]-3-{(1S,4R)-4-[3-(2,6-dichloro-phenyl)-[1,2,4]triazolo[4,3-a]pyridin-6-yloxy]-1,2,3,4-tetrahydro-naphthalen-1-yl}-urea formate salt] | < 10
13 | < 10 | CN1CCN(CCn2nc(C(C)(C)C)cc2NC(=O)N[C@H]2CC[C@@H](Oc3ccc4nnc(-c5c(Cl)cccc5Cl)n4c3)c3ccccc32)CC1 [Example 30, 1-{5-tert-Butyl-2-[2-(4-methyl-piperazin-1-yl)-ethyl]-2H-pyrazol-3-yl}-3-{(1S,4R)-4-[3-(2,6-dichloro-phenyl)-[1,2,4]triazolo[4,3-a]pyridin-6-yloxy]-1,2,3,4-tetrahydro-naphthalen-1-yl}-urea formate salt] | < 10
14 | < 10 | CC(C)(C)c1cc(NC(=O)N[C@H]2CC[C@@H](Oc3ccc4nnc(-c5ccccc5Cl)n4c3)c3ccccc32)n(CCO)n1 [Example 31, 1-[5-tert-Butyl-2-(2-hydroxy-ethyl)-2H-pyrazol-3-yl]-3-{(1S,4R)-4-[3-(2-chloro-phenyl)-[1,2,4]triazolo[4,3-a]pyridin-6-yloxy]-1,2,3,4-tetrahydro-naphthalen-1-yl}-urea] | < 10
15 | < 10 | CC(C)(C)c1cc(NC(=O)N[C@H]2CC[C@@H](Oc3ccc4nnc(-c5c(Cl)cccc5Cl)n4c3)c3ccccc32)n(CCO)n1 [Example 26, 1-[5-tert-Butyl-2-(2-hydroxy-ethyl)-2H-pyrazol-3-yl]-3-{(1S,4R)-4-[3-(2,6-dichloro-phenyl)-[1,2,4]triazolo[4,3-a]pyridin-6-yloxy]-1,2,3,4-tetrahydro-naphthalen-1-yl}-urea] | < 10

— patent US9029373B2, “Kinase inhibitors” (Chiesi Farmaceutici S.p.A., priority 2011, dated 2015)
